In patent US20140041064A1, “COMPOSITIONS AND METHODS FOR I[…] FACTORS AND ANTI-FUNGAL AGENTS” (WORCESTER POLYTECHNIC INSTITUTE, priority 2011, published 2014):

Experiments:
[1] = system: C. albicans; conditions: hydrogen peroxide at a final concentration of 2 mM; 20° C., 30° C. and 37° C.
Description: In vitro, Cap1 regulates the response to oxidative stress, which is a key component of the innate immune response to fungi (Alarco et al., J. Bacteriol. 181:700-708.3, 1999); Enjalbert et al., Mol. Biol. Cell. 17:1018-1032, 2006; Wang et al., Free Radic. Biol. Med. 40:1201-1209, 2006; Zhang et al., Mol. Microbiol. 36:618-629, 2000) and is induced in the presence of neutrophils (Fradin et al., Mol. Microbiol. 56:397-415, 2005). To correlate these studies performed at 30° C. and 37° C., respectively, with our in vivo infection performed at 20° C., we compared the ROS sensitivity profiles of cap1Δ/Δ, CAP1-complemented and the cognate wild type strain at 20° C., 30° C. and 37° C.

[2] = system: Macrophage cell line RAW 264.7; conditions: 0.05 μM DPI; RAW 264.7 macrophages co-cultured overnight with wild type, cap1Δ/Δ and CAP1-complemented C. albicans (1:15)
Description: Macrophage cell line RAW 264.7 (ATCC) was used in the assay. The cell line was maintained in DMEM supplemented with 10% fetal bovine serum (FBS). […] Briefly, macrophages on reaching 80-90% confluence were scraped and brought up in DMEM supplemented with 10% FBS and 100 U/ml penicillin and 100 μg/ml streptomycin. 2×10^6 macrophage cells were plated in a 35 mm^2 plate and allowed to adhere for 5 hours. Candida strains were grown overnight at 37° C., diluted 1:10, and allowed to grow for another 5 hours. Candida cells were then washed with supplemented DMEM and were added to the plates containing macrophages in a ratio of 1:15 macrophage and to a final volume of 2 ml. Yeast strain was also grown in parallel without macrophages to calculate % survival. The plates were incubated overnight at 37° C. and 5% CO2. Cells were then brought up to 24 mls in a tube using 0.05% Triton X-100 (v/v) in water to osmotically lyse the macrophage cells. Dilutions were prepared and plated on a YPD plate and grown overnight at 37° C. Colony forming units (CFU) were counted and percentage survival was calculated by taking the ratio of CFU from co culture of Candida and macrophage to the CFU obtained for Candida alone.
Experiments involving diphenyleneiodium chloride (DPI) were performed as mentioned above but with the addition of 0.05 μM DPI from a 31.8 mM stock solution in DMSO. […]

OO [hydrogen peroxide]
growth of CAP1-complemented strain [1]: same growth as the wild type | growth of reconstructed cap1Δ mutant [1]: failed to grow

c1ccc2c(c1)[I+]c1ccccc1-2 [DPI, Diphenyleneiodonium chloride]
CFUs of C. albicans recovered from macrophages [2]: no difference in CFUs recovered from macrophages between the three strains
